Like-named read-outs stand apart in the source and are kept apart here.
Assays:
PC-3 cells = experiment: MTT cell growth inhibition, PC-3
LNCaP cells = experiment: MTT cell growth inhibition, LNCaP;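 note: MTT formazan absorbance at 600 nm read after 72 h of compound exposure, IC50 fitted by nonlinear regression of dose-response curves, samples run in triplicate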
22Rv1 cells = experiment: MTT cell growth inhibition, 22Rv1; details: read-out: Cellular IC50 (μM) 22Rv1, MTT
Protocol: MDA PCa 2b was seeded at the same density in medium BRFF-HPC1 (Athena Enzyme Systems, Baltimore, Md., USA) supplemented with 20% FBS. After overnight incubation, the medium was changed to a fresh medium containing different concentrations of test compounds diluted from stock DMSO solution. The final concentration of DMSO is 0.5%. After 72 h of incubation with test compounds, 20 μL of 3-(4,5-dimethyl thiazol-2-yl)-2,5-diphenyltetrazolium bromide (MTT) solution (5 mg/mL in PBS) were added to each well and incubated further for 2 h. Next, the supernatant was aspirated and the MTT formazan formed by metabolically viable cells was dissolved in 100 μL of isopropanol. The plates were mixed for 30 min, and the absorbance was measured at 600 nm on a plate reader (FLUOstar OPTIMA, BMG LabTech). All samples were in triplicate. The IC50 values were determined from dose-response curves by nonlinear regression using PRISM v5.00 (GraphPad Software Inc, La Jolla, Calif., USA).
The in vitro cytotoxicity of 1-20 were evaluated by MTT assays in a panel of prostate cancer cell lines, including LNCaP, MDA PCa 2b, 22Rv1, C4-2B and PC-3.

C4-2B cells = experiment: MTT cell growth inhibition, C4-2B;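 note: cells treated with a dilution series for 72 h, then MTT added and absorbance read at 600 nm, IC50 fitted from dose-response curves by nonlinear regression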
[1] = read-out: Cellular IC50 (μM) PC3, Table 8
[2] = read-out: Cellular IC50 (μM) LNCaP, Table 8
[3] = read-out: Cellular IC50 (μM) C4-2B, Table 8
[4] = read-out: Cellular IC50 (μM) PC-3, Table 9
[5] = read-out: Cellular IC50 (μM) LNCaP, Table 9

SMILES	IC50 (PC-3 cells; [1]) [µM]	IC50 (LNCaP cells; [2]) [µM]	IC50 (22Rv1 cells; Table 8) [µM]	IC50 (C4-2B cells; [3]) [µM]	further results
CC1=C(/C=C/C(=O)/C=C/c2ccc(Oc3ccccc3)cc2)C(C)(C)CCC1O (stereo not shown) [Compound B56]	11.5	10.4	10.4	7.5	
CC1=C(/C=C/C(=O)/C=C/c2ccc(-c3ccccc3)cc2)C(C)(C)CCC1O (stereo not shown) [Compound B57]	11.9	2.9	5.2	6	
CC1=C(/C=C/C(=O)/C=C/c2ccc(-c3cncnc3)cc2)C(C)(C)CCC1O (stereo not shown) [Compound B58]	4.3	1.5	3.8	2.1	
CC1=C(/C=C/C(=O)/C=C/c2ccc(N3CCCCC3)cc2)C(C)(C)CCC1O (stereo not shown) [Compound B59]	22.5	17.8	31.2	19.7	
CC1=C(/C=C/C(=O)/C=C/c2ccc(N3CCOCC3)cc2)C(C)(C)CCC1O (stereo not shown) [Compound B60]	16	3.9			
CCOC(OCC)c1ccc(/C=C/C(=O)/C=C/C2=C(C)C(O)CCC2(C)C)cc1 (stereo not shown) [Compound B61]	3.7	1.8	2.1	1.7	
CC1=C(/C=C/C(=O)/C=C/c2ccc(N(CCO)CCO)cc2)C(C)(C)CCC1O (stereo not shown) [Compound B62]	6.9	1.4	4.3	1.7	
CC1=C(/C=C/C(=O)/C=C/c2ccc(N(C)C)cc2)C(C)(C)CCC1O (stereo not shown) [Compound B63]	13	8.8	42		
CC1=C(/C=C/C(=O)/C=C/c2ccccc2C)C(C)(C)CCC1O (stereo not shown) [Compound B64]	7.6	2.5	4.6	2.7	
COc1ccccc1/C=C/C(=O)/C=C/C1=C(C)C(O)CCC1(C)C (stereo not shown) [Compound B65]	7.1	1.9	4.6	2.6	
CC1=C(/C=C/C(=O)/C=C/c2cc(F)ccc2F)C(C)(C)CCC1O (stereo not shown) [Compound B66]	7.2	3.5	4.5	6.9	
CC1=C(/C=C/C(=O)/C=C/c2ccc(F)cc2F)C(C)(C)CCC1O (stereo not shown) [Compound B67]	7.5	4.3	4.8	2.1	
COc1ccc(/C=C/C(=O)/C=C/C2=C(C)C(O)CCC2(C)C)cc1O (stereo not shown) [Compound B69]	53.9	12.3	19.1	12	
COc1ccc(/C=C/C(=O)/C=C/C2=C(C)C(O)CCC2(C)C)cc1OC (stereo not shown) [Compound B70]	6.8	2.1	8.2		
CCOc1ccc(/C=C/C(=O)/C=C/C2=C(C)C(O)CCC2(C)C)cc1OCC (stereo not shown) [Compound B71]	36.1	5.5	8.6	10.5	
COc1cc(/C=C/C(=O)/C=C/C2=C(C)C(O)CCC2(C)C)cc(OC)c1OC (stereo not shown) [Compound B72]	4.9	1.8	3	1.7	
COc1cc(OC)c(OC)cc1/C=C/C(=O)/C=C/C1=C(C)C(O)CCC1(C)C (stereo not shown) [Compound B73]	9.5	3.7	5.4	3.2	
COc1cc(OC)c(/C=C/C(=O)/C=C/C2=C(C)C(O)CCC2(C)C)c(OC)c1 (stereo not shown) [Compound B74]	> 25	15.5	21	11.6	
COc1cc(/C=C/C(=O)/C=C/C2=C(C)C(O)CCC2(C)C)c(OCc2ccccc2)cc1OC (stereo not shown) [Compound B75]	25.4	16.7	19.2	23.3	
CC1(C)CCC(O)C=C1/C=C/C(=O)/C=C/c1ccc2c(c1)OCO2 (stereo not shown) [Compound B76]					IC50 (PC-3 cells; [4]): 25.8 µM; IC50 (LNCaP cells; [5]): 11.2 µM; IC50 (22Rv1 cells; Table 9): 20.1 µM; IC50 (C4-2B cells; read-out: Cellular IC50 (μM) C4-2B, Table 9): 6.2 µM
CC1(C)CCC(O)C=C1/C=C/C(=O)/C=C/c1ccc2c(c1)OC(F)(F)O2 (stereo not shown) [Compound B77]					IC50 (PC-3 cells; [4]): 3.2 µM; IC50 (LNCaP cells; [5]): 1.1 µM
Cn1c(/C=C/C(=O)/C=C/C2=CC(O)CCC2(C)C)cc2ccccc21 (stereo not shown) [Compound B80]					IC50 (PC-3 cells; [4]): 19.8 µM; IC50 (LNCaP cells; [5]): 7 µM; IC50 (22Rv1 cells; Table 9): 9.5 µM
CCn1c2ccccc2c2cc(/C=C/C(=O)/C=C/C3=CC(O)CCC3(C)C)ccc21 (stereo not shown) [Compound B91]					IC50 (PC-3 cells; [4]): 8.6 µM; IC50 (LNCaP cells; [5]): 3.8 µM; IC50 (22Rv1 cells; Table 9): 4.7 µM
CC(=O)/C=C/C1=C(C)CCCC1(C)C [β-Ionone, reference compound]					Cellular IC50 (μM) PC-3 (PC-3 cells; Table 2, 72 h, max tested 50 μM (β-ionone 150 μM)): Inactive^e; Cytotoxicity, IC50 (μM) PC-3 (PC-3 cells; Table 5, β-ionone max tested 150 μM): Inactive^b; IC50 (LNCaP cells; read-out: Cellular IC50 (μM) LNCaP, Table 2, 72 h): 151 µM; IC50 (LNCaP cells; read-out: Cytotoxicity, IC50 (μM) LNCaP, Table 5): 151 µM

From patent publication US8470889B2 (TRT Pharma Inc., priority 2008, dated 2013)
